According to patent publication US20240325495A1, “FUSION PROTEINS FOR THE TREATMENT OF DISEASE” (Bristol-Myers Squibb Company, priority 2020, published 2024):

Experiments:
self-blocking homodimer = assay: Biochemical and biophysical characterization: homodimer dissociation; format: binding; settings: in vitro at 37° C.
[1] = molecular target: T1, IL-2Rβγ (as a pre-assembled heterodimer) (Mus musculus, UniProt P16297+P34902); assay: Binding affinity to mouse IL-2Rβγ
T1 sequence (P16297 27-240 limits assumed): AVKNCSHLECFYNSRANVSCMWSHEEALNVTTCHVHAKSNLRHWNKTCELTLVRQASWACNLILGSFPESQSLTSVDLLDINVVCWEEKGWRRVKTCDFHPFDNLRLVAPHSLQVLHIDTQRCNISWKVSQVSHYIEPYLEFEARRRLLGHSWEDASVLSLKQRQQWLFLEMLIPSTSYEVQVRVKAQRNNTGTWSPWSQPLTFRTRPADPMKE
T1 sequence (P34902 23-263 limits assumed): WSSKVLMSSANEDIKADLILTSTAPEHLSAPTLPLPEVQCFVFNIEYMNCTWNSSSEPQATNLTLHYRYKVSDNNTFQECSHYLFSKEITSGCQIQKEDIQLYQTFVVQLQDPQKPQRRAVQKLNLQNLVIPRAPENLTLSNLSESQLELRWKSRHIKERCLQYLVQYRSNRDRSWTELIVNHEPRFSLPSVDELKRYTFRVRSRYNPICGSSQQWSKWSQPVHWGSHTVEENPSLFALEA

[2] = tested on: Kit225 Interferon Regulatory Factor 1 (IRF1)-driven reporter cell line; assay: Kit225 IRF1-driven reporter cell line assay; format: cell-based
[3] = Linker-cleavage ex vivo in monkey serum samples (LC-MS/MS); format: in vitro ADME; settings: monkey serum samples ex vivo after SC administration, up to 168 hours
Protocol: Various in vitro and in vivo studies were conducted to characterize the PK of BMS-986326 in the nonclinical setting.

rats [4] = assay: Single-dose exploratory SC study in rats; format: in vivo
rats [5] = assay: 2-week toxicity study in rats, twice weekly SC; format: in vivo
Source text: (§1) The highest exposures were noted during the first week of each study and diminished considerably during the second week, due to ADA impact. […] Splenic capsular fibroplasia with inflammation was considered adverse at all twice weekly doses due to moderate to marked severity and was also associated with minimal to mild inflammation in the mesentery (adjacent to the stomach and pancreas), which further contributed to the adversity of the finding. […] The primary BMS-986326-related effects were mostly minimal in severity at all once weekly doses (0.25, 0.5, or 1 mg/kg) and included increased eosinophils (1.9× to 6.7×); minimal capsular fibroplasia/fibrosis of spleen without inflammation or involvement of adjacent mesentery; and pharmacologically mediated infiltration of eosinophils into a few tissues, none of which were considered adverse due to low magnitude of change and lack of evidence of any compromise in functional integrity of organs involved.

rats [6] = assay: 2-week toxicity study in rats, once weekly SC; format: in vivo
Source text: as §1

Treg = assay: Phase 1 single ascending dose study, Cohort A4; format: in vivo, human; settings: Cohort A4, 3 mg single intravenous infusion, compared to placebo; preliminary
Protocol: BMS-986326 is assessed in a Phase 1, randomized, double-blind, placebo-controlled, single ascending doses (SAD) study to evaluate the safety, tolerability, pharmacokinetics (PK), and pharmacodynamics (PD) of single doses of BMS-986326 in healthy adult participants.
Blood samples are collected and measured by flow cytometry for quantitating immune cells such as Treg, Tconv, follicular helper T cells (Tfh), B cells, and NK cells by surface markers that may include, but not limited to, cell lineage and activation markers CD3, CD4, CD8, CD14, CD25, CD39, CD45, CD45RA, CD56, CD127, Foxp3, Helios, CXCR5, CCR7, and Ki67. Blood samples are also collected and measured by flow cytometry for determining BMS-986326 engagement to Treg, Tconv, CD8 T cells, and NK cells identified by pSTAT5.
Preliminary Results from BMS-986326 Cohort A4 (3 mg Single Intravenous Infusion)

[7] = Human PK/PD, exposure and efficacious dose projection; settings: projected peak
Protocol: Human PK was projected using allometric scaling of monkey PK parameters and was assumed to have similar SC bioavailability as in monkeys.
The first approach was based on maximal preclinical efficacy in mouse models dosed with mIL2-CD25.
The selection of the starting dose of 0.1 mg IV is based on the available preclinical PK, toxicology, and pharmacology data. PK/PD modeling and simulations were performed to generate predicted human PK and PD profiles from nonclinical data.

Sequence of self-blocking homodimer (as listed by the source): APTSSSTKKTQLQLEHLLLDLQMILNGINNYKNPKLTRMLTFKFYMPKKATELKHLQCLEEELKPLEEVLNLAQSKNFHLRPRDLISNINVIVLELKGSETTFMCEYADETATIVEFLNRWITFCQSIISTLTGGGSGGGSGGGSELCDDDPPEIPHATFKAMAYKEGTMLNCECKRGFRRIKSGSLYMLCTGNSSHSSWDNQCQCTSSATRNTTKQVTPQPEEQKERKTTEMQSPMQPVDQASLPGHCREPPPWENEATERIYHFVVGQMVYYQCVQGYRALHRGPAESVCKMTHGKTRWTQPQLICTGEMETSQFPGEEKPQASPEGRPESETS

In the case of “BMS-986326: recombinant fusion protein of human IL2 and extracellular domain of human CD25, (GGGS)3 linker, non-covalent self-blocking homodimer”, the “dissociation half-life of self-blocking homodimer” value (self-blocking homodimer) is reported as “approximately 3 days”, the Kd [1] is reported as over 4000 nM and the “decrease of in vitro potency compared to recombinant IL-2” value [2] is reported as over 100 fold. For the same substance, the EC50 ([2]; Kit225 IRF1-driven reporter cell line, read-out: average half-maximal effective concentration (EC50)) was 3.4 nM, the linker-cleavage [3] was “did not show signs of linker-cleavage” and the “dose not tolerated (morbidity or death on Day 5)” value (rats [4]; male rats, single SC dose) was at least 25 mg/kg/day. The “mean AUC [0-96 h]” value (rats [4]; rats, 5 mg/kg) was 501 µg·h/mL, the “dose with no adverse effects observed” value (rats [4]; rats, single SC dose) was 5 mg/kg and the “mean AUC [0-96 h] at not tolerated doses” value (rats [4]; rats, ≥25 mg/kg/day) was ≥ 2,080 μg·h/mL. For the same substance, the “doses with adverse capsular fibroplasia and inflammation of the spleen” value (rats [5]; rat, in vivo) was at least 0.5 mg/kg, the “increases in eosinophils versus controls” value (rats [5]; rat, in vivo, 0.5 mg/kg) was 3-22 × and the clinically tolerated doses (rats [5]; rats, 2-week studies, all doses) was at most 2.5 mg/kg. For the same substance, the NOAEL (rats [5]; rats, twice weekly dosing study) was “a NOAEL was not identified”, the “mean AUC [0-336 h] at tolerated doses” value (rats [5]; rats, ≤[…]) was at most 600 µg·h/mL and the “mean AUC at NOAEL” value (rats [6]; 1 mg/kg once weekly) was 162 µg·h/mL. For the same substance, the NOAEL (rats [6]; once weekly dosing for 2 weeks) was 1 mg/kg, the “Treg versus baseline levels” value (Treg) was “increased from baseline levels” and the “Fold-change CD8+” value ([7]; 0.1 mg IV) was under 2 fold. The “Fold-change Tregs” value ([7]; 0.1 mg IV) was under 2 fold, the “Fold-change CD8+” value ([7]; 0.3 mg IV) was under 2 fold and the “Fold-change Tregs” value ([7]; 0.3 mg IV) was under 2 fold. For the same substance, the “Fold-change CD8+” value ([7]; 1 mg IV) was under 2 fold, the “Fold-change Tregs” value ([7]; 1 mg IV) was 2-4 fold and the “Fold-change CD8+” value ([7]; 1 mg SC) was under 2 fold. For the same substance, the “Fold-change Tregs” value ([7]; 1 mg SC) was 2-3 fold, the “Fold-change CD8+” value ([7]; 3 mg IV) was under 2 fold and the “Fold-change Tregs” value ([7]; 3 mg IV) was 4-8 fold. The “Fold-change CD8+” value ([7]; 3 mg SC) was under 2 fold, the “Fold-change Tregs” value ([7]; 3 mg SC) was 3-5 fold and the “Fold-change CD8+” value ([7]; 6 mg IV) was about 2 fold. For the same substance, the “Fold-change Tregs” value ([7]; 6 mg IV) was 7-15 fold, the “Fold-change CD8+” value ([7]; 6 mg SC) was under 2 fold and the “Fold-change Tregs” value ([7]; 6 mg SC) was 4-8 fold. The “Fold-change CD8+” value ([7]; 8 mg SC) was about 2 fold, the “Fold-change Tregs” value ([7]; 8 mg SC) was 5-10 fold and the “Fold-change CD8+” value ([7]; 9 mg IV (optional Cohort A6)) was about 2 fold. The “Fold-change Tregs” value ([7]; 9 mg IV (optional Cohort A6)) was 10-20 fold.
